Measurements as given in the kinase profiling compilation of Christmann-Franck et al. (2016).

What was measured:
Test in all cases: Caliper, Mobility shift assay off-chip
SPHK2 (human) = SPHK2 (human) (UniProt Q9NRA0)
TNK1 (human) = TNK1 (human) (UniProt Q13470)
MAPKAPK5 (human) = MAPKAPK5 (human) (UniProt Q8IW41)
NUAK2 (human) = NUAK2 (human) (UniProt Q9H093)
INSR (human) = INSR (human) (UniProt P06213)
CDC7 (human) = CDC7 (human) (UniProt O00311)
HCK (human) = HCK (human) (UniProt P08631)
PLK1 (human) = PLK1 (human) (UniProt P53350)
BMX (human) = BMX (human) (UniProt P51813)
MKNK1 (human) = MKNK1 (human) (UniProt Q9BUB5)
MARK4 (human) = MARK4 (human) (UniProt Q96L34)
YES1 (human) = YES1 (human) (UniProt P07947)
PAK7 (human) = PAK7 (human) (UniProt Q9P286)
MAPK7 (human) = MAPK7 (human) (UniProt Q13164)
PRKCE (human) = PRKCE (human) (UniProt Q02156)
MAPK10 (human) = MAPK10 (human) (UniProt P53779)
EPHA5 (human) = EPHA5 (human) (UniProt P54756)
PAK2 (human) = PAK2 (human) (UniProt Q13177)
MKNK2 (human) = MKNK2 (human) (UniProt Q9HBH9)
FLT1 (human) = FLT1 (human) (UniProt P17948)
TYRO3 (human) = TYRO3 (human) (UniProt Q06418)
MERTK (human) = MERTK (human) (UniProt Q12866)
CIT (human) = CIT (human) (UniProt O14578)
DDR1 (human) = DDR1 (human) (UniProt Q08345)
CDK3 (human) = CDK3 (human) (UniProt Q00526)
RET (human) = RET (human) (UniProt P07949)
PDGFRA (human) = PDGFRA (human) (UniProt P16234)
PRKCQ (human) = PRKCQ (human) (UniProt Q04759)
EPHB2 (human) = EPHB2 (human) (UniProt P29323)
FGR (human) = FGR (human) (UniProt P09769)
CAMK2G (human) = CAMK2G (human) (UniProt Q13555)
TEC (human) = TEC (human) (UniProt P42680)
PAK4 (human) = PAK4 (human) (UniProt O96013)

Sequence of MKNK1 (human) (Q9BUB5 whole entry, looked up): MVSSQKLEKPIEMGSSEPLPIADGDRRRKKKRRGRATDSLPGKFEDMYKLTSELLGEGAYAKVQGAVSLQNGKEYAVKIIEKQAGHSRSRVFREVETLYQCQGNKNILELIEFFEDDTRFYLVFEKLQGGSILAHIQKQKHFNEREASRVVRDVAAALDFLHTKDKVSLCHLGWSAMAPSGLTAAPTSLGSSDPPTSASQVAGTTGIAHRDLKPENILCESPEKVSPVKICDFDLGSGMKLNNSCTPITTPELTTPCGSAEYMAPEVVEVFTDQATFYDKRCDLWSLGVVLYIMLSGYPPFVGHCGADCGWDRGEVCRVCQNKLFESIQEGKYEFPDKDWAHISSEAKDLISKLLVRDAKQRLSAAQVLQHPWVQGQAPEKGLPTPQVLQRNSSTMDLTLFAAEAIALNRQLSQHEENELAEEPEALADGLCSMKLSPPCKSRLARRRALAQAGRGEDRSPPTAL
Sequence of PAK7 (human) (Q9P286 whole entry, looked up): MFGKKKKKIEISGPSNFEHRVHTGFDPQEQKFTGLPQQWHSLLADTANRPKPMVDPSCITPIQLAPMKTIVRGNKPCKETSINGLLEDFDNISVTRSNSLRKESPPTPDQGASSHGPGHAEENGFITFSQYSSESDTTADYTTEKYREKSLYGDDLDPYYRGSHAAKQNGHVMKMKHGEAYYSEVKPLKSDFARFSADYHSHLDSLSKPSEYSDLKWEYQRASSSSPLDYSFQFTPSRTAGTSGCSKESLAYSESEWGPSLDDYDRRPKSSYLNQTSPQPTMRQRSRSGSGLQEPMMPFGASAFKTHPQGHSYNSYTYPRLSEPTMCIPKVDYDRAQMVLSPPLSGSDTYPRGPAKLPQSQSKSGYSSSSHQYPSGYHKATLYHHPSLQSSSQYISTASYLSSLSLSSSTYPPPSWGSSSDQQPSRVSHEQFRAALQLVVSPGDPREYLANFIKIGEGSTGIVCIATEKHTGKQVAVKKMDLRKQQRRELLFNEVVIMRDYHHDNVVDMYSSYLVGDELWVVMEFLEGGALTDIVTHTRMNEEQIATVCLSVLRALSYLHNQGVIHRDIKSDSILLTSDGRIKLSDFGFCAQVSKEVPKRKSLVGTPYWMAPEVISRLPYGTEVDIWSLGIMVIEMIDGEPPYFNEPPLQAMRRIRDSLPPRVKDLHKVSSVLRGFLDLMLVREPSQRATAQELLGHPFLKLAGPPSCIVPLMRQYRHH
Sequence of EPHA5 (human) (P54756 whole entry, looked up): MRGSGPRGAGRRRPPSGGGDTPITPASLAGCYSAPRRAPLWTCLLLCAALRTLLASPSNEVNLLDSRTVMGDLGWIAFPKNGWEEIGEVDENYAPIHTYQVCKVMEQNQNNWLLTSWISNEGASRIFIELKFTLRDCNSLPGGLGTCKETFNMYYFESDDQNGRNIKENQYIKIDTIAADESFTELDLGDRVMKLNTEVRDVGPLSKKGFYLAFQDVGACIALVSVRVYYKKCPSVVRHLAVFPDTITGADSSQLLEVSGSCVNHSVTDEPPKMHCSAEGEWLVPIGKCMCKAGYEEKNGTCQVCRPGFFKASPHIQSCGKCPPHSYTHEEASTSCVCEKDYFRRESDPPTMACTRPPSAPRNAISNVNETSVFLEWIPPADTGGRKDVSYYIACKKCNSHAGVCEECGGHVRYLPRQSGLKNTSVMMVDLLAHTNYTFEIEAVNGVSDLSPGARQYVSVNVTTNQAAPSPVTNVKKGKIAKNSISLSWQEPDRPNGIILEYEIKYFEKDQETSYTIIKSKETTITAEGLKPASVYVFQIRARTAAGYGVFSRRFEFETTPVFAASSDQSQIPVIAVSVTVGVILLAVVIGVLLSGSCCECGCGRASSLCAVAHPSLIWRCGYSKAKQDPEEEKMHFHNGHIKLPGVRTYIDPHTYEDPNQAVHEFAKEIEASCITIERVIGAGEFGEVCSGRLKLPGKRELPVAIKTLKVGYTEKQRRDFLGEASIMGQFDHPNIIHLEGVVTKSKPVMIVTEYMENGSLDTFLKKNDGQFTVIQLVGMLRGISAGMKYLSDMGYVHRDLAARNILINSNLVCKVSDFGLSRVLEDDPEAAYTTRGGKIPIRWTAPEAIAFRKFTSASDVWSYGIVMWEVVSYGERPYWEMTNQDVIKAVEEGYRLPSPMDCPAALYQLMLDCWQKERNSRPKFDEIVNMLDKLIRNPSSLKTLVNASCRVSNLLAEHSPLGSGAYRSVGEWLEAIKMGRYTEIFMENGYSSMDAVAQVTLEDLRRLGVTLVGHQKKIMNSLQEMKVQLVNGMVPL
Sequence of BMX (human) (P51813 whole entry, looked up): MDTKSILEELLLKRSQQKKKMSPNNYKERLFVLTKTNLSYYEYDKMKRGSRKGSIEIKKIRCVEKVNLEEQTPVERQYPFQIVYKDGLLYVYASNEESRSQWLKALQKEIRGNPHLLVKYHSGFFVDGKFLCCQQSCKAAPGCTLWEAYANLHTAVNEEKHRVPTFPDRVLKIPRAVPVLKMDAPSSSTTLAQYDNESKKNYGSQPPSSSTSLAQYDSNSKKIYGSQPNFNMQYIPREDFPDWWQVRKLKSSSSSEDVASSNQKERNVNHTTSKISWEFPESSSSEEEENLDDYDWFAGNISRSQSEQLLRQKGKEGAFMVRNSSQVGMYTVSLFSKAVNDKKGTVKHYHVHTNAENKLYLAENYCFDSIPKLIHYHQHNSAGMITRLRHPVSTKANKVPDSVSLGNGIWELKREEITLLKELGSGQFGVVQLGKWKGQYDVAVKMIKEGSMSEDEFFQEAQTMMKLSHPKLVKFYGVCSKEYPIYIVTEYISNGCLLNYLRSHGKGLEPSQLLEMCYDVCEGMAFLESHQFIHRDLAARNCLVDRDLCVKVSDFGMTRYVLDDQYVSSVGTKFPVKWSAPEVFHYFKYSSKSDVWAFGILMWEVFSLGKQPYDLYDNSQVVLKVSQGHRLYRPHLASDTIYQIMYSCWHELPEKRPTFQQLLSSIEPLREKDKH
Sequence of MERTK (human) (Q12866 whole entry, looked up): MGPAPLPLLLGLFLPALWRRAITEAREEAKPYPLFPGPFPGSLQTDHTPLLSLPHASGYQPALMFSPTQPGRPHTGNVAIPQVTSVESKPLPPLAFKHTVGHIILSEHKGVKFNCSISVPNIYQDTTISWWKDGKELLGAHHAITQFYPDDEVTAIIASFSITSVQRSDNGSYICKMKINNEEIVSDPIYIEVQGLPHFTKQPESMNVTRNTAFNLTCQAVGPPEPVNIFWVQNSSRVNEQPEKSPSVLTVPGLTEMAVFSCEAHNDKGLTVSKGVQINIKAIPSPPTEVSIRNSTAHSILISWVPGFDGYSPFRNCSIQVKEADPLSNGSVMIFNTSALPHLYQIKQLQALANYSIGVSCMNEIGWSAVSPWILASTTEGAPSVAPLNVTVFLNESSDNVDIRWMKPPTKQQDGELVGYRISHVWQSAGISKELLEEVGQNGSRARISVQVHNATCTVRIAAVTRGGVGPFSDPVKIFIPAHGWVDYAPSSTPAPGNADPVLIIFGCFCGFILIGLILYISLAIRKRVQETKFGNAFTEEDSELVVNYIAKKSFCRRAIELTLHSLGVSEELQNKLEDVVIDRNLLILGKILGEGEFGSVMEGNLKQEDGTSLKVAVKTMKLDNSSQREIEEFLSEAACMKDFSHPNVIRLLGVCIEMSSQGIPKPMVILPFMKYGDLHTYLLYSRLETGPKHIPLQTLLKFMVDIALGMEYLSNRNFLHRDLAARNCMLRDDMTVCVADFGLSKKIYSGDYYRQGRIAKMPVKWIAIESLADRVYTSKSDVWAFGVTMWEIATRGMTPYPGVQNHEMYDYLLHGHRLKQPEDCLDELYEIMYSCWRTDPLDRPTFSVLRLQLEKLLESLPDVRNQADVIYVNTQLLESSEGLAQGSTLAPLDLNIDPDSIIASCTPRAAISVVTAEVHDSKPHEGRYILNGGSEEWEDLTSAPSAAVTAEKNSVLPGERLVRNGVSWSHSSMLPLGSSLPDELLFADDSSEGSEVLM
Sequence of MAPK7 (human) (Q13164 whole entry, looked up): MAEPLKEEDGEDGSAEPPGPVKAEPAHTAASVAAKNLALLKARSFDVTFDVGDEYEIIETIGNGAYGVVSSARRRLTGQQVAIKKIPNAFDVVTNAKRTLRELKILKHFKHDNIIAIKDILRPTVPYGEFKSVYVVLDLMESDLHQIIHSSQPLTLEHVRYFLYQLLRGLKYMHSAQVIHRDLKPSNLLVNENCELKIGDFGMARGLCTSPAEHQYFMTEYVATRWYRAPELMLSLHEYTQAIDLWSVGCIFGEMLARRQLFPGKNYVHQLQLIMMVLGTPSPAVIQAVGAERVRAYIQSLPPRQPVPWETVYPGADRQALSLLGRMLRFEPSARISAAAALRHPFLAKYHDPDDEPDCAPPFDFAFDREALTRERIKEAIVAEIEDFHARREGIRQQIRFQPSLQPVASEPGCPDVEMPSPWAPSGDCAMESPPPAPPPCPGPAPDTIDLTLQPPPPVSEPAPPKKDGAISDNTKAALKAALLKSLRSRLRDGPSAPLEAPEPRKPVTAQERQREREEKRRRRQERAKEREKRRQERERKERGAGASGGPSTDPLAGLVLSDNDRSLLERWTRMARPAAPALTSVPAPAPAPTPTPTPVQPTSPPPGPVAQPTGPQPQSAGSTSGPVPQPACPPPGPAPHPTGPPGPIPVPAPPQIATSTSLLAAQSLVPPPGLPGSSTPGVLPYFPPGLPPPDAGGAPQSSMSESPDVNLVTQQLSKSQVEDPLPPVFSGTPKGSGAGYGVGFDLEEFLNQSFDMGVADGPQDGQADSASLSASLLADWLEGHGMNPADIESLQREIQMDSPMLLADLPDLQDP
Sequence of CDK3 (human) (Q00526 whole entry, looked up): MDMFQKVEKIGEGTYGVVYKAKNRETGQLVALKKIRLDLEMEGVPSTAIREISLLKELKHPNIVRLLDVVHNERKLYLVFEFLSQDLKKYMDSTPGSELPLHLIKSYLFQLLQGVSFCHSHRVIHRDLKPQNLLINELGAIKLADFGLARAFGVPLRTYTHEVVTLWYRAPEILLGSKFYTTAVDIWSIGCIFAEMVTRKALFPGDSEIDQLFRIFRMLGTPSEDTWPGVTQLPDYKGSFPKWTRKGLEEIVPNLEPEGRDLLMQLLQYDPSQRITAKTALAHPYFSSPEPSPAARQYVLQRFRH

CNC(=O)c1cc(Oc2ccc(NC(=O)Nc3ccc(Cl)c(C(F)(F)F)c3)cc2)ccn1
inhibition (SPHK2 (human); compound 0.02 µM): -6%
inhibition (SPHK2 (human); compound 0.2 µM): 7.1%
inhibition (TNK1 (human); compound 0.02 µM): -0.4%
inhibition (TNK1 (human); compound 0.2 µM): 19%
inhibition (MAPKAPK5 (human); compound 0.02 µM): -7.4%
inhibition (MAPKAPK5 (human); compound 0.2 µM): 1.4%
inhibition (NUAK2 (human); compound 0.02 µM): -6%
inhibition (NUAK2 (human); compound 0.2 µM): 2.5%
inhibition (INSR (human); compound 0.02 µM): -8.9%
inhibition (INSR (human); compound 0.2 µM): 2.1%
inhibition (CDC7 (human); compound 0.02 µM): -4.3%
inhibition (CDC7 (human); compound 0.2 µM): -4.2%
inhibition (HCK (human); compound 0.02 µM): -11.6%
inhibition (HCK (human); compound 0.2 µM): 5.2%
inhibition (PLK1 (human); compound 0.02 µM): -3.1%
inhibition (PLK1 (human); compound 0.2 µM): -3.7%
inhibition (BMX (human); compound 0.02 µM): 0.1%
inhibition (BMX (human); compound 0.2 µM): 10.4%
inhibition (MKNK1 (human); compound 0.02 µM): -1.3%
inhibition (MKNK1 (human); compound 0.2 µM): 6.4%
inhibition (MARK4 (human); compound 0.02 µM): 1.4%
inhibition (MARK4 (human); compound 0.2 µM): 1.6%
inhibition (YES1 (human); compound 0.02 µM): -1.9%
inhibition (YES1 (human); compound 0.2 µM): 17.7%
inhibition (PAK7 (human); compound 0.02 µM): -2.5%
inhibition (PAK7 (human); compound 0.2 µM): -1.8%
inhibition (MAPK7 (human); compound 0.02 µM): -9.1%
inhibition (MAPK7 (human); compound 0.2 µM): -8.8%
inhibition (PRKCE (human); compound 0.02 µM): 0.4%
inhibition (PRKCE (human); compound 0.2 µM): 6%
inhibition (MAPK10 (human); compound 0.02 µM): -6.5%
inhibition (MAPK10 (human); compound 0.2 µM): -4.6%
inhibition (EPHA5 (human); compound 0.02 µM): 6.1%
inhibition (EPHA5 (human); compound 0.2 µM): 38.8%
inhibition (PAK2 (human); compound 0.02 µM): -1.7%
inhibition (PAK2 (human); compound 0.2 µM): 0.7%
inhibition (MKNK2 (human); compound 0.02 µM): 4.4%
inhibition (MKNK2 (human); compound 0.2 µM): 48.3%
inhibition (FLT1 (human); compound 0.02 µM): 49.3%
inhibition (FLT1 (human); compound 0.2 µM): 99.6%
inhibition (TYRO3 (human); compound 0.02 µM): -9.4%
inhibition (TYRO3 (human); compound 0.2 µM): 3.7%
inhibition (MERTK (human); compound 0.02 µM): -3.5%
inhibition (MERTK (human); compound 0.2 µM): 10.2%
inhibition (CIT (human); compound 0.02 µM): -4.9%
inhibition (CIT (human); compound 0.2 µM): -2.3%
inhibition (DDR1 (human); compound 0.02 µM): 4.2%
inhibition (DDR1 (human); compound 0.2 µM): 88.7%
inhibition (CDK3 (human); compound 0.02 µM): -4.1%
inhibition (CDK3 (human); compound 0.2 µM): -2.4%
inhibition (RET (human); compound 0.02 µM): 79.4%
inhibition (RET (human); compound 0.2 µM): 101%
inhibition (PDGFRA (human); compound 0.02 µM): 97.3%
inhibition (PDGFRA (human); compound 0.2 µM): 105%
inhibition (PRKCQ (human); compound 0.02 µM): 1.3%
inhibition (PRKCQ (human); compound 0.2 µM): 14.1%
inhibition (EPHB2 (human); compound 0.02 µM): -2.9%
inhibition (EPHB2 (human); compound 0.2 µM): 14.4%
inhibition (FGR (human); compound 0.02 µM): 1.6%
inhibition (FGR (human); compound 0.2 µM): 14.2%
inhibition (CAMK2G (human); compound 0.02 µM): -7%
inhibition (CAMK2G (human); compound 0.2 µM): 2%
inhibition (TEC (human); compound 0.02 µM): -6.3%
inhibition (TEC (human); compound 0.2 µM): 9.4%
inhibition (PAK4 (human); compound 0.02 µM): -8%
inhibition (PAK4 (human); compound 0.2 µM): 4.4%
